In ChEMBL document CHEMBL4680246, “Design, synthesis and biological evaluation of novel O-carbamoyl ferulamide derivatives as multi-target-directed ligands for the treatment of Alzheimer's disease” (Eur J Med Chem, 2020):
Active and inactive are the calls of the source. The calls are words filed in the database; no cut-off is given here.

What was measured:
[1] = molecular target: T1, Cholinesterase (Homo sapiens, UniProt P06276); experiment: Inhibition of human serum BuChE using acetylcholine iodide as substrate incubated for 15 mins by Ellman's method
[2] = organism: Homo sapiens; experiment: Selectivity index, ratio of IC50 for human erythrocytes Ache to IC50 for human serum BuChe
[3] = molecular target: T2, Amine oxidase [flavin-containing] B (Homo sapiens, UniProt P27338); experiment: Inhibition of recombinant human MAO-B
T2 sequence (P27338 whole entry): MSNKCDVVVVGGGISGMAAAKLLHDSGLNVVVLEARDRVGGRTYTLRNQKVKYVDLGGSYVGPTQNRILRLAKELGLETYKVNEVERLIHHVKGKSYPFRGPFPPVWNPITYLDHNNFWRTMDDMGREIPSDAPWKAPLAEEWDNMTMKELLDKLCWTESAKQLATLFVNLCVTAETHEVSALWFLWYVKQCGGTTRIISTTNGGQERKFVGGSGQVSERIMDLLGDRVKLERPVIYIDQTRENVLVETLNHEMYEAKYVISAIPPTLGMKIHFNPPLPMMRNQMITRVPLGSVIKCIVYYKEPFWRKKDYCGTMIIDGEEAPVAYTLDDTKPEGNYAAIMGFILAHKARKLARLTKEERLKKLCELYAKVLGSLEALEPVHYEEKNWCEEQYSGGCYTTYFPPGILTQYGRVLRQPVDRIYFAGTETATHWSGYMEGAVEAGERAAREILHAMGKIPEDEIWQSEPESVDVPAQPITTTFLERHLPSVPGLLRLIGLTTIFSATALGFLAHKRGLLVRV

[4] = molecular target: Acetylcholinesterase (Homo sapiens, UniProt P22303); experiment: Inhibition of human erythrocytes AChE using acetylcholine iodide as substrate incubated for 15 mins by Ellman's method
[5] = molecular target: Acetylcholinesterase (Electrophorus electricus, UniProt O42275); experiment: Inhibition of Electrophorus electricus AChE using acetylcholine iodide as substrate incubated for 15 mins by Ellman's method
[6] = molecular target: Cholinesterase (Equus caballus, UniProt P81908); experiment: Inhibition of equine serum BuChE using BTC as substrate after 15 mins by Ellman's method
[7] = molecular target: T3, Amine oxidase [flavin-containing] A (Homo sapiens, UniProt P21397); experiment: Inhibition of recombinant human MAO-A
T3 sequence (P21397 whole entry): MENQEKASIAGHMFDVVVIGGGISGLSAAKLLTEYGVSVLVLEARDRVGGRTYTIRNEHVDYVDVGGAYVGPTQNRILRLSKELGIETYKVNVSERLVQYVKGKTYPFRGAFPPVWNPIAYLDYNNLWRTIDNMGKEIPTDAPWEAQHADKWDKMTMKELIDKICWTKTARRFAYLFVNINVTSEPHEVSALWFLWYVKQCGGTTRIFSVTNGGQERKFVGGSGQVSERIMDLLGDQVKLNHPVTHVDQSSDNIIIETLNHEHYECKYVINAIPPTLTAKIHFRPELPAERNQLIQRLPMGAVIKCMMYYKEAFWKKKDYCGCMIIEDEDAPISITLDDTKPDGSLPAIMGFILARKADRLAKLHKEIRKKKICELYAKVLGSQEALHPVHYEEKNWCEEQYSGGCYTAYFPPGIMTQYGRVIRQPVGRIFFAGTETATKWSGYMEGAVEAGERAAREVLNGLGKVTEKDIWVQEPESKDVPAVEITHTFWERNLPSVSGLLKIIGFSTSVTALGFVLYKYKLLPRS

[8] = organism: Homo sapiens; experiment: Selectivity index, ratio of IC50 for recombinant human MAO-A to IC50 for recombinant human MAO-B
[9] = molecular target: Cholinesterase (Equus caballus) (UniProt P81908); experiment: Inhibition of equine serum BuChE at 25 uM using BTC as substrate after 15 mins by Ellman's method relative to control
[10] = organism: Danio rerio; experiment: Antialzheimer activity in AlCl3-induced Zebrafish model of Alzheimer's disease assessed as increase in motility distance at 8 uM relative to control; assay type: functional
[11] = organism: Danio rerio; experiment: Antialzheimer activity in AlCl3-induced Zebrafish model of Alzheimer's disease assessed as change in motility speed at 8 uM (reference value: 1.08 mm/s); assay type: functional
[12] = organism: Danio rerio; experiment: Antialzheimer activity in AlCl3-induced Zebrafish model of Alzheimer's disease assessed as motility distance at 8 uM (reference value: 5346 mm); assay type: functional
[13] = molecular target: T1, Cholinesterase; experiment: Inhibition of human serum BuChE assessed as residual activity at 0.1 times IC50 using acetylcholine iodide as substrate measured after dilution by Ellman's method relative to control
[14] = organism: Danio rerio; experiment: Antialzheimer activity in AlCl3-induced Zebrafish model of Alzheimer's disease assessed as increase in motility speed at 8 uM relative to control; assay type: functional
[15] = Selectivity index, ratio of IC50 for Electrophorus electricus AChE to IC50 for equine serum BuChE
[16] = test system: Mus musculus; experiment: Improvement in cognitive impairment in scopolamine-induced mouse model of amnesia assessed as increase in spontaneous alteration at 10 mg/kg by Y-maze test; assay type: functional, organism-based
[17] = molecular target: Amyloid-beta precursor protein (Homo sapiens) (UniProt P05067); experiment: Inhibition of self-induced Amyloid beta (1 to 42 residues) (unknown origin) aggregation at 25 uM measured after 24 hrs by thioflavin T-based fluorimetric assay relative to control
Sequence of Amyloid-beta precursor protein (Homo sapiens) (P05067 whole entry, the tested form may be a part): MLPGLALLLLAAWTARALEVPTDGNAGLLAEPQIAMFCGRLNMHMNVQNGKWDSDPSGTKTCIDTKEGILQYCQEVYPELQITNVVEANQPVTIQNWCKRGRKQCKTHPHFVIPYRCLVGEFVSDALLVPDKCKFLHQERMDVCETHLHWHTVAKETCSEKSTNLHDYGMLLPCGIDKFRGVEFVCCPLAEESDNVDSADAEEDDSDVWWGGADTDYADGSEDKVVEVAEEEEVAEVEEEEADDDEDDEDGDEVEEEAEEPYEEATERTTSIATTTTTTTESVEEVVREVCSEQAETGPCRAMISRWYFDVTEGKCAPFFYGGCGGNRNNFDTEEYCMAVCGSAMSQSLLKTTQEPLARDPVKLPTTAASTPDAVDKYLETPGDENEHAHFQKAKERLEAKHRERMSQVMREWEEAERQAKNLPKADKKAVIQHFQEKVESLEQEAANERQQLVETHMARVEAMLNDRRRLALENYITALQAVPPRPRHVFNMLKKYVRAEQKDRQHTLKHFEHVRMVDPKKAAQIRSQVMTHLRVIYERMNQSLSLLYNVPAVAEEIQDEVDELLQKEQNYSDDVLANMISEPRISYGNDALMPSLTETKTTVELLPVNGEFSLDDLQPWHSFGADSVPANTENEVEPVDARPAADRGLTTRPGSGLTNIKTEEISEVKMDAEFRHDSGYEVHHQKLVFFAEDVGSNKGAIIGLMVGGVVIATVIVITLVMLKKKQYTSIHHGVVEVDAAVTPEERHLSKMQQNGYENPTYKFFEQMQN

Sequence of Acetylcholinesterase (Homo sapiens, UniProt P22303) (P22303 whole entry): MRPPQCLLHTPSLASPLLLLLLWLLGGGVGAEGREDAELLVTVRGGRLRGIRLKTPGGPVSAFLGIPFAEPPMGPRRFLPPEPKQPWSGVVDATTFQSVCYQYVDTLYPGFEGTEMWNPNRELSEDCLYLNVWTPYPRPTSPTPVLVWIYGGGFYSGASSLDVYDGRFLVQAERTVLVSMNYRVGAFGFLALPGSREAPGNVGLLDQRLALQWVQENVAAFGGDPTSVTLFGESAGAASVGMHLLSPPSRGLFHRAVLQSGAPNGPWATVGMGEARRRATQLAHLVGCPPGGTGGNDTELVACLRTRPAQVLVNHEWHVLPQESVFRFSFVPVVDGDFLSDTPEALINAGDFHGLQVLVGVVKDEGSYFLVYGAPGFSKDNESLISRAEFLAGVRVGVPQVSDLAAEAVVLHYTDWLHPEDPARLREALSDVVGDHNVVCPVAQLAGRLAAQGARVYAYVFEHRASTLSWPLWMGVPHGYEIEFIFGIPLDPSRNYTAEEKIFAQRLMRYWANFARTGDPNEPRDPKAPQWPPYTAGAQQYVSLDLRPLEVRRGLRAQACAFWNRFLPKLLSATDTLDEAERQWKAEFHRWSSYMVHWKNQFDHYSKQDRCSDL
Sequence of Cholinesterase (Equus caballus, UniProt P81908) (P81908 whole entry): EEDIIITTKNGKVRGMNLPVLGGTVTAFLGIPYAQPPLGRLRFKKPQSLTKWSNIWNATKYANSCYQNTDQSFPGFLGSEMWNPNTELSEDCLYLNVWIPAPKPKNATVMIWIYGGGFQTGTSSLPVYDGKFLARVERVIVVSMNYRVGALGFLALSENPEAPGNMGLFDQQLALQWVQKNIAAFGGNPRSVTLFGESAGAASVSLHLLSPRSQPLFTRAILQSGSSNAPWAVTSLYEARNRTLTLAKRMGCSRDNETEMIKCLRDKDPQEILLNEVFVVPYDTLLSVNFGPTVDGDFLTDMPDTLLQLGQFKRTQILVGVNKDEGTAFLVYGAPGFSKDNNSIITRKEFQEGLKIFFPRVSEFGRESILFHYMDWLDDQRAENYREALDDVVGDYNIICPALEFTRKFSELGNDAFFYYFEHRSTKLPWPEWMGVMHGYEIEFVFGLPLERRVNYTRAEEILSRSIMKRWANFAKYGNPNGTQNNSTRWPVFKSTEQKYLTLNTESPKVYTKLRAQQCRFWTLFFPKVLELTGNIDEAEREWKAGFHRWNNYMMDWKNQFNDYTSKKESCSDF
T1 sequence (P06276 whole entry): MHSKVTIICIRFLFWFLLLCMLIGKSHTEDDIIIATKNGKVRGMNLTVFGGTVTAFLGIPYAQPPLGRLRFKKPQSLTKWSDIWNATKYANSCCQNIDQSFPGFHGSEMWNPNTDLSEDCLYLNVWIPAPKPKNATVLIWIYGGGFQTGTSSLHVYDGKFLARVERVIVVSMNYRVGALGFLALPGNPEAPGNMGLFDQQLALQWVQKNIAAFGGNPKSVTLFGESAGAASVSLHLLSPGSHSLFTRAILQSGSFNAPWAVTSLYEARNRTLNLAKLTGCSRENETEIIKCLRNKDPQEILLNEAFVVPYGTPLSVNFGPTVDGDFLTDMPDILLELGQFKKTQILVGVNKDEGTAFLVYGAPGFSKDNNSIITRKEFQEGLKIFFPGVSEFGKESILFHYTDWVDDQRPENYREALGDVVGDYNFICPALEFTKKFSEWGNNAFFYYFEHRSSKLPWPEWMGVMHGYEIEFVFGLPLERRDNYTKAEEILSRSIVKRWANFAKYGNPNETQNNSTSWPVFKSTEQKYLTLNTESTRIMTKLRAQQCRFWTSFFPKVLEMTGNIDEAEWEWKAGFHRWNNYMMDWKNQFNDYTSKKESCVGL
Sequence of Acetylcholinesterase (Electrophorus electricus, UniProt O42275) (O42275 whole entry): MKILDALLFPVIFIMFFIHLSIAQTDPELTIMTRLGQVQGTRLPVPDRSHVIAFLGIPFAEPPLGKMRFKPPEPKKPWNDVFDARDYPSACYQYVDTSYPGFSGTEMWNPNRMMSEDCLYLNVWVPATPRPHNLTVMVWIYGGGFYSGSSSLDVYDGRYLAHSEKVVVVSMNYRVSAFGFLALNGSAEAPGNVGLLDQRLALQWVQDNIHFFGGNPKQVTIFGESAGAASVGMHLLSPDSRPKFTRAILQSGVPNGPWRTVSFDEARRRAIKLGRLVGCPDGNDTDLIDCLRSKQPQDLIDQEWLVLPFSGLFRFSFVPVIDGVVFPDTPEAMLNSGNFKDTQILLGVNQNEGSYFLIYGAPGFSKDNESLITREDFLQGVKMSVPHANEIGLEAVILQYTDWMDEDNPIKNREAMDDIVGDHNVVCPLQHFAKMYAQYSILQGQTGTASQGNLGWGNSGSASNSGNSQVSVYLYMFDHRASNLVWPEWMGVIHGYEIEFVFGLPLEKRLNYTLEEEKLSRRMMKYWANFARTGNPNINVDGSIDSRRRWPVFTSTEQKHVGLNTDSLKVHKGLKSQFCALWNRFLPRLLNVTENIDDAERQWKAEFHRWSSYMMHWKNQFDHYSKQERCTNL
Sequence of Cholinesterase (Equus caballus) (P81908 whole entry): as the sequence (P81908 whole entry) above

SMILES	IC50 [1] [µM]	Ratio IC50 [2]	IC50 [3] [µM]	IC50 [4] [µM]	IC50 [5] [µM]	IC50 [6] [µM]	IC50 [7] [µM]	Ratio IC50 [8]	inhibition [9] [%]	Efficacy [10] [%]	Activity [11]	Activity [12] [mm]	Activity [13] [%]	Efficacy [14] [%]	Ratio IC50 [15]	Activity [16]	inhibition [17] [%]
COc1cc(/C=C/C(=O)N2CCC(Cc3ccccc3)CC2)ccc1OC(=O)N(c1ccccc1)c1ccccc1	36.7	0.9	13.3	32.1	88.3	> 100	34.6	2.6	6.6								
COc1cc2c(cc1OC)C(=O)C(CC1CCN(Cc3ccccc3)CC1)C2 (configuration not stated) [DONEPEZIL]										57.9	<=1.88 millimeter/sec	6477	63.2	64.5			
COc1cc(/C=C/C(=O)N2CCCCC2)ccc1OC(=O)N(C)C	13.1	0.69	32.5	9.1	17.5	26.3	33.3	1							0.67		
CC(=O)OCC[N+](C)(C)C																inactive	
CCN(CC)C(=O)Oc1ccc(/C=C/C(=O)N2CCc3ccccc3C2)cc1OC	7.7	2	6.6	15.7	13.6	2	8	1.2							6.8		
CCN(C)C(=O)Oc1ccc(/C=C/C(=O)N2CCC(Cc3ccccc3)CC2)cc1OC	6.5	2.7	7.52	17.3	15.1	3.9	7.9	1.1							3.9		53.7
CCN(C)C(=O)Oc1ccc(/C=C/C(=O)N2CCN(Cc3ccccc3)CC2)cc1	29.7	0.5	21.3	14.8	25.6	20.3	9.8	0.5							1.3		
COc1cc(/C=C/C(=O)N2CCc3ccccc3C2)ccc1OC(=O)N(c1ccccc1)c1ccccc1	25.8	1.2	12.2	30.5	93.2	23.9	16.9	1.4									
COc1cc(/C=C/C(=O)N2CCc3ccccc3C2)ccc1OC(=O)N(C)C	9.5	1.9	9.8	17.9	26.8	3.7	35.7	3.6							7.2		
COc1cc(/C=C/C(=O)N2CCCCC2)ccc1OC(=O)N(c1ccccc1)c1ccccc1	22.9	1.2	21.8	27.2	21.8	98.5	46.2	2.1	20								
COc1cc(/C=C/C(=O)N2CCC(Cc3ccccc3)CC2)ccc1OC(=O)N(C)C	7.6	2.2	8.9	16.6	18.9	1.3	16.3	1.8							14.5		56.6
CCN(Cc1ccccc1)C(=O)/C=C/c1ccc(OC(=O)N(c2ccccc2)c2ccccc2)c(OC)c1	25.3	1.1	15.9	28.1	18.9	24.6	24.6	1.5							0.77		
